Laboratory results published in the supplement of paper PMC10307832.

Columns and labels:
Test in all cases: relative viability (nuclei count vs DMSO), 5 days (fraction); higher = more cells survive
[1] = compound: CN(C)C(=N)NC(=N)N [Metformin] + O=C(c1cc(Cc2n[nH]c(=O)c3ccccc23)ccc1F)N1CCN(C(=O)C2CC2)CC1 [Olaparib] (partner 8 µM)
Method in brief: (§1)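 Lung cancer cell lines in 1536-well plates got either a single drug or a fixed anchor-drug dose together with five library-drug doses (not always all listed) in √10 steps, by pin tool, on the day after seeding. Nuclei were counted after 5 days, and relative viability is the treated-to-vehicle ratio of nuclei counts. Values are medians of duplicate plates.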

[2] = compound: N#CC1(c2ccc(NC(=O)c3cccnc3NCc3ccncc3)cc2)CCCC1 [Apatinib] + COc1cccc2cc(-c3nc([C@H]4CC[C@H](C(=O)O)CC4)n4ncnc(N)c34)[nH]c12 [OSI-027] (partner 0.5 µM)
Method in brief: as §1

[3] = compound: N#CC1(c2ccc(NC(=O)c3cccnc3NCc3ccncc3)cc2)CCCC1 [Apatinib] + C[C@@H](Oc1cc(-c2cnn(C3CCNCC3)c2)cnc1N)c1c(Cl)ccc(F)c1Cl [Crizotinib] (partner 1 µM)
Method in brief: as §1

[4] = compound: N#CC1(c2ccc(NC(=O)c3cccnc3NCc3ccncc3)cc2)CCCC1 [Apatinib] + CC(=O)Nc1cccc(-n2c(=O)n(C3CC3)c(=O)c3c(Nc4ccc(I)cc4F)n(C)c(=O)c(C)c32)c1 [Trametinib] (partner 0.02 µM)
Method in brief: as §1

Row | Cell Line | relative viability ([1]; first compound 10 µM) | relative viability ([1]; first compound 31.62 µM) | relative viability ([1]; first compound 316.23 µM) | relative viability ([1]; first compound 1000 µM) | relative viability ([2]; first compound 0.08 µM) | relative viability ([2]; first compound 0.253 µM) | relative viability ([2]; first compound 0.8 µM) | relative viability ([2]; first compound 2.53 µM) | relative viability ([2]; first compound 8 µM) | relative viability ([3]; first compound 0.08 µM) | relative viability ([3]; first compound 0.253 µM) | relative viability ([3]; first compound 0.8 µM) | relative viability ([3]; first compound 2.53 µM) | relative viability ([3]; first compound 8 µM) | relative viability ([4]; first compound 0.253 µM) | relative viability ([4]; first compound 0.8 µM) | relative viability ([4]; first compound 2.53 µM) | relative viability ([4]; first compound 8 µM) | relative viability ([1]; first compound 100 µM) | relative viability ([4]; first compound 0.08 µM)
1 | PC-3 [JPC-3] | 0.95 | 0.932 | 0.741 | 0.69 | 0.747 | 0.639 | 0.627 | 0.517 | 0.571 | 1.02 | 0.962 | 0.922 | 0.933 | 0.901 | 0.786 | 0.553 | 0.646 | 0.654 |  | 
2 | NCI-H1666 | 0.78 | 0.76 | 0.726 | 0.764 | 0.883 | 0.826 | 0.797 | 0.73 | 0.755 | 1.15 | 1.28 | 0.985 | 1.14 | 0.718 | 0.942 | 0.783 | 0.81 | 0.681 | 0.834 | 0.843
3 | NCI-H520 | 0.276 | 0.264 | 0.274 | 0.259 | 0.262 | 0.229 | 0.219 | 0.25 | 0.224 | 0.912 | 0.701 | 0.737 | 0.614 | 0.45 | 0.66 | 0.787 | 0.485 | 0.325 | 0.276 | 0.666
4 | NCI-H2023 | 0.332 | 0.366 | 0.344 | 0.31 | 0.499 | 0.42 | 0.342 | 0.296 | 0.207 | 0.717 | 0.737 | 0.69 | 0.699 | 0.643 | 0.647 | 0.492 | 0.489 | 0.399 | 0.282 | 0.635
5 | LXF-289 | 0.929 | 0.922 | 0.917 | 0.93 | 0.81 | 0.849 | 0.745 | 0.763 | 0.718 | 0.797 | 0.817 | 0.778 | 0.749 | 0.742 | 0.705 | 0.638 | 0.608 | 0.56 | 0.829 | 0.667
6 | EPLC-272H | 0.748 | 0.769 | 0.922 | 0.877 | 0.308 |  | 0.268 | 0.246 | 0.247 | 0.944 | 0.933 | 0.767 | 0.8 | 0.991 | 0.264 | 0.301 | 0.321 | 0.234 | 1.01 | 0.297
7 | NCI-H2087 | 0.316 | 0.453 | 0.426 | 0.473 | 0.607 | 0.458 | 0.468 | 0.492 | 0.426 | 0.89 | 0.799 | 0.741 | 0.614 | 0.7 | 0.169 | 0.205 | 0.195 | 0.191 | 0.414 | 0.188
8 | NCI-H647 | 0.375 | 0.394 | 0.44 | 0.375 | 0.77 | 0.619 | 0.576 | 0.593 | 0.528 | 1.18 | 1.23 | 1 | 0.846 | 0.737 | 0.501 | 0.457 | 0.439 | 0.315 | 0.415 | 0.547
9 | NCI-H661 | 0.648 | 0.718 | 0.694 | 0.711 | 0.678 | 0.603 | 0.693 | 0.705 | 0.603 | 1.02 | 1.03 | 1.02 | 0.934 | 0.916 | 0.594 | 0.571 | 0.532 | 0.463 | 0.715 | 0.606
10 | NCI-H358 | 0.394 | 0.537 | 0.412 | 0.424 | 0.898 | 0.789 | 0.772 | 0.706 | 0.692 | 0.682 | 0.586 | 0.525 | 0.54 | 0.43 | 0.12 | 0.179 | 0.159 | 0.131 | 0.569 | 0.144
11 | LCLC-97TM1 |  | 0.321 | 0.249 | 0.414 | 0.516 | 0.427 | 0.456 | 0.395 | 0.329 | 0.449 | 0.409 | 0.372 | 0.264 | 0.161 | 0.221 | 0.179 | 0.231 | 0.182 | 0.394 | 0.221
12 | NCI-H1944 | 0.385 | 0.381 | 0.397 | 0.471 | 0.419 | 0.387 | 0.361 | 0.378 | 0.405 | 1.03 | 1.17 | 0.998 | 0.983 | 0.911 | 0.429 | 0.318 | 0.403 | 0.29 | 0.479 | 0.395
13 | 201T |  | 0.802 | 0.775 | 0.822 |  | 0.763 | 0.718 | 0.723 | 0.751 | 1.02 | 1.04 | 0.996 | 1.03 | 0.992 | 0.725 | 0.68 | 0.729 | 0.607 | 0.815 | 0.731
14 | CAL-12T | 0.612 | 0.661 | 0.611 | 0.744 | 0.652 | 0.589 | 0.52 | 0.366 | 0.272 | 0.801 | 0.569 | 0.694 | 0.695 | 0.459 | 0.337 | 0.289 | 0.313 | 0.249 | 0.61 | 0.385
